US10301294B2, “Compounds for the treatment of tuberculosis” (priority 2013, dated 2019)
pIC50: −log10 of the molar value.

Assays:
Assay type in all cases: cell-based
[1] = tested on: carbon-starved M. tuberculosis H37Rv; experiment: Non-replicating IC90 determination by luciferase (carbon-starved cells); details: Mycobacterium tuberculosis, H37RV; non-replicating carbon-starved Mtb, luciferase; three independent experiments in triplicate; read-out: TB Growth Inhibition Activity, IC90 Non-replicating_luciferase
[2] = Cytotoxicity against HepG2; details: human, HepG2 cells, 26.0 uM highest concentration measured
[3] = Cytotoxicity against HeLa; details: human, HeLa cells, 26.0 uM highest concentration measured
[4] = tested on: replicating M. tuberculosis H37Rv; experiment: microbe, parasite or virus in culture; details: Mycobacterium tuberculosis, H37RV, three independent experiments in triplicate, read-out: TB Growth Inhibition Activity, IC90 Replicating_logarithmic (converted)
[5] = Cytotoxicity against Hek 293; details: human, HEK293 cells, 26.0 uM highest concentration measured

SMILES | IC90 [1] [µM] | pIC50 [2] | pIC50 [3] | IC90 [4] [µM] | pIC50 [5]
c1ccc(CSc2nnc(-c3ccccc3)o2)cc1 | 8 | < 4.59 | < 4.59 | 62 | < 4.59
c1ccc(CSc2nnc(-c3ccccc3)s2)cc1 | 8 | < 4.59 | < 4.59 | 62 | < 4.59
c1ccc(CCc2nnc(-c3ccccc3)o2)cc1 | 0.5 | < 4.59 | < 4.59 | 250 | < 4.59
c1ccc(CSc2nnc(C3CCCCC3)o2)cc1 | 1 | < 4.59 | < 4.59 | 125 | < 4.59
c1ccc(CSc2nnc(C3CCCC3)o2)cc1 | 0.5 | < 4.59 | < 4.59 | 125 | < 4.59
CC(C)c1nnc(SCc2ccccc2)o1 | 2 | < 4.59 | < 4.59 | 125 | < 4.59
c1ccc(CSc2nnc(Cc3ccccc3)o2)cc1 | 4 | < 4.59 | < 4.59 | 500 | < 4.59
c1ccc(CCc2nnc(SCc3ccccc3)o2)cc1 | 32 | < 4.59 | < 4.59 | 250 | < 4.59
COc1ccccc1-c1nnc(SCc2ccccc2)o1 | 125 | < 4.59 | < 4.59 | 250 | < 4.59
Fc1ccccc1-c1nnc(SCc2ccccc2)o1 | 2 | < 4.59 | < 4.59 | 125 | < 4.59
Clc1ccccc1-c1nnc(SCc2ccccc2)o1 | 32 | < 4.59 | < 4.59 | 250 | < 4.59
FC(F)(F)c1ccccc1-c1nnc(SCc2ccccc2)o1 | 62 | < 4.59 | < 4.59 | 500 | < 4.59
CS(=O)(=O)c1ccccc1-c1nnc(SCc2ccccc2)o1 | 62 | < 4.59 | < 4.59 | 500 | < 4.59
COc1cccc(-c2nnc(SCc3ccccc3)o2)c1 | 8 | < 4.59 | < 4.59 | 250 | < 4.59
Fc1cccc(-c2nnc(SCc3ccccc3)o2)c1 | 1 | < 4.59 | < 4.59 | 125 | < 4.59
FC(F)(F)Oc1cccc(-c2nnc(SCc3ccccc3)o2)c1 | 31 | < 4.59 | < 4.59 | 250 | < 4.59
Cc1ccc(-c2nnc(SCc3ccccc3)o2)cc1 | 4 | < 4.59 | < 4.59 | 125 | < 4.59
Fc1ccc(-c2nnc(SCc3ccccc3)o2)cc1 | 2 | < 4.59 | < 4.59 | 125 | < 4.59
Clc1ccc(-c2nnc(SCc3ccccc3)o2)cc1 | 4 | < 4.59 | < 4.59 | 500 | < 4.59
c1ccc(CSc2nnc(-c3ccccn3)o2)cc1 | 4 | < 4.59 | < 4.59 | 125 | < 4.59
c1ccc(CSc2nnc(-c3cccnc3)o2)cc1 | 2 | < 4.59 | < 4.59 | 125 | < 4.59

SMILES | IC90 [1] [µM] | pIC50 [2] | pIC50 [3] | IC90 [4] [µM] | pIC50 [5]
c1ccc(CSc2nnc(-c3cscn3)o2)cc1 | 4 | < 4.59 | < 4.59 | 125 | < 4.59
Cc1ccccc1CSc1nnc(-c2ccccc2)o1 | 8 | < 4.59 | < 4.59 | 250 | < 4.59
c1ccc(Cn2cc(CSc3nnc(-c4ccccc4)o3)nn2)cc1 | 4 | < 4.59 | < 4.59 | > 62 | < 4.59
Fc1ccc(-c2nnc(SCc3cn(Cc4ccccc4)nn3)o2)cc1 | 2 | < 4.59 | < 4.59 | > 62 | < 4.59
c1ccc(Cn2cc(CSc3nnc(C4CCCC4)o3)nn2)cc1 | 31 | < 4.59 | < 4.59 | 62 | < 4.59
c1ccc(Cn2cc(CSc3nnc(C4CCC4)o3)nn2)cc1 | 8 | < 4.59 | < 4.59 | > 62 | < 4.59
Fc1ccc(Cn2cc(CSc3nnc(C4CCCC4)o3)nn2)cc1 | 31 | < 4.59 | < 4.59 | > 62 | < 4.59
Fc1ccc(Cn2cc(CSc3nnc(C4CCC4)o3)nn2)cc1 | 8 | < 4.59 | < 4.59 | > 62 | < 4.59
Fc1ccc(Cn2cc(CSc3nnc(-c4ccc(F)cc4)o3)nn2)cc1 | 4 | < 4.59 | < 4.59 | > 62 | < 4.59
Fc1ccc(Cn2cc(CSc3nnc(-c4ccc(Cl)cc4)o3)nn2)cc1 | 2 | < 4.59 | < 4.59 | > 62 | < 4.59
Fc1ccc(-c2nnc(SCc3cn(-c4ccccc4)nn3)o2)cc1 | 2 | < 4.59 | < 4.59 | > 62 | < 4.59
c1ccc(-n2cc(CSc3nnc(C4CCC4)o3)nn2)cc1 | 2 | < 4.59 | < 4.59 | 62 | < 4.59
c1ccc(-n2cc(CSc3nnc(C4CCCC4)o3)nn2)cc1 | 4 | < 4.59 | < 4.59 | 62 | < 4.59
O=S(=O)(Cc1ccccc1)c1nnc(-c2ccccc2)o1 [drawing 80] | 8 | < 4.59 | < 4.59 | 125 | < 4.59
c1ccc(-c2nnc(SCc3ccccn3)o2)cc1 [drawing 142] | 3 | < 4.59 | < 4.59 | 100 | < 4.59
c1ccc(-c2nnc(SCc3cccnc3)o2)cc1 [drawing 143] | 8 | < 4.59 | < 4.59 | 125 | < 4.59
c1ccc(-c2nnc(SCc3ccncc3)o2)cc1 [drawing 144] | 31 | < 4.59 | < 4.59 | 250 | < 4.59
COCCSc1nnc(-c2ccccc2)o1 [drawing 148] | 3 | < 4.59 | < 4.59 | 125 | < 4.59
Clc1ccc(-c2nnc(SCc3cn(Cc4ccccc4)nn3)o2)cc1 [drawing 156] | 2 | < 4.59 | < 4.59 | > 62 | < 4.59
Clc1ccc(-c2nnc(SCc3cn(-c4ccccc4)nn3)o2)cc1 [drawing 164] | 1 | < 4.59 | < 4.59 | > 62 | < 4.59
